Laboratory results from article PMC7072484 (Biomolecules, 2020).
pIC50: −log10 of the molar value. Like-named read-outs stand apart in the source and are kept apart here.

How the values were obtained:
[1] = target: T1, CYP2B6 (Homo sapiens, UniProt P20813); test: P450-Glo luminescence inhibition assay; type: biochemical
T1 construct: native enzyme in pooled human liver microsomes (200 donors, male and female; Sekisui XenoTech), isoform-selective P450-Glo CYP2B6 kit
T1 sequence (P20813 1-491): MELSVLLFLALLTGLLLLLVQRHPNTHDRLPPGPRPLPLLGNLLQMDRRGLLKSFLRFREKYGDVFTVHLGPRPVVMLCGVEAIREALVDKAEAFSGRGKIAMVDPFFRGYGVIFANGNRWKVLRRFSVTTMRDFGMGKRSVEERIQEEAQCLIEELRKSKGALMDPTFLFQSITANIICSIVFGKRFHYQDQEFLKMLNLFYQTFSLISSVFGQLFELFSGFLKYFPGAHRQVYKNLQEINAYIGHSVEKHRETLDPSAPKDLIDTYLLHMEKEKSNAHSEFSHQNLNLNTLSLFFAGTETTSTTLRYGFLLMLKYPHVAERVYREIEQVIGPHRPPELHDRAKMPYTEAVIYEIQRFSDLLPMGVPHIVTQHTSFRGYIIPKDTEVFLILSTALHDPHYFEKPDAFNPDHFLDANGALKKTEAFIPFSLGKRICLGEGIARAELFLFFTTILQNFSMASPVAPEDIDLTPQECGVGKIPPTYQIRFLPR

[2] = target: T2, CYP3A4 (Homo sapiens, UniProt P08684); test: P450-Glo luminescence inhibition assay; type: biochemical
T2 construct: native enzyme in pooled human liver microsomes (200 donors, male and female; Sekisui XenoTech), isoform-selective P450-Glo CYP3A4 kit
T2 sequence (P08684 2-503): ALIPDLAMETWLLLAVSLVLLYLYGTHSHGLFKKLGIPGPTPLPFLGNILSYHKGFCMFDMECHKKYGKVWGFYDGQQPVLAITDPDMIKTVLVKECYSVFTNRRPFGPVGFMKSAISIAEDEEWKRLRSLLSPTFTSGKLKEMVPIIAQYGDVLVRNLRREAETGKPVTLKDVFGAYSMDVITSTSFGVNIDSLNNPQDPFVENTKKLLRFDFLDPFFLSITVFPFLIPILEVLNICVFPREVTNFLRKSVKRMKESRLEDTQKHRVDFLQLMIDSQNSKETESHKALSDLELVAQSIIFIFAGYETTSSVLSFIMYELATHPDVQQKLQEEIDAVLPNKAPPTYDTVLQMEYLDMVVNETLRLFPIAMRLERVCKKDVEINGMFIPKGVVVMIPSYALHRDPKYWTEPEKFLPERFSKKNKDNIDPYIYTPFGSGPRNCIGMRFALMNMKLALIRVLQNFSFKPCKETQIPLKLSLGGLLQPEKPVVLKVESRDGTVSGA

Structure (SMILES)	pIC50 [1]	pIC50 ([2]; read-out: CYP3A4 IC50)	pIC50 ([2]; read-out: CYP2B6 IC50)
COc1cc(-c2oc3cc(OC)c(OC)c(O)c3c(=O)c2OC)ccc1O [Chrysosplenetin]	4.13	4.66	–
COc1cc2oc(-c3ccc(O)c(O)c3)c(OC)c(=O)c2c(O)c1OC [Chrysosplenol-D]	4.28	4.64	–
O=c1c(O)c(-c2ccc(O)cc2)oc2cc(O)cc(O)c12 [Kaempferol]	< 3.22	4.47	–
O=c1c(O)c(-c2ccc(O)c(O)c2)oc2cc(O)cc(O)c12 [Quercetin]	4.70	5.34	–
COc1cc2ccc(=O)oc2cc1O [Scopoletin]	< 3.22	–	–

Further lines, results first:

pIC50 [1]	pIC50 ([2]; read-out: CYP3A4 IC50)	pIC50 ([2]; read-out: CYP2B6 IC50)	Structure (SMILES)
5.03	4.91	–	C=C1C(=O)O[C@@]23[C@H]1CC[C@@H](C)[C@@H]2CC[C@@]1(C)O[C@@H]31 [Arteannuin B]
3.91	3.62	–	C=C(C(=O)O)[C@@H]1CC[C@@H](C)[C@@H]2CCC(C)=C[C@@H]21 [Artemisinic Acid]
3.92	< 3.22	–	CC1(C)[C@@H]2CC[C@@]1(C)C(=O)C2 [Camphor (+)]
3.85	< 3.22	–	CC1(C)[C@H]2CC[C@]1(C)C(=O)C2 [Camphor (-)]
< 3.22	–	< 3.22	O=C(/C=C/c1ccc(O)c(O)c1)O[C@@H]1C[C@](O)(C(=O)O)C[C@@H](O)[C@H]1O [Chlorogenic Acid]
3.96	< 3.22	–	C[C@@H]1CC[C@H]2[C@@H](C)C(=O)O[C@@H]3O[C@@]4(C)CC[C@@H]1[C@]32O4 [Deoxyartemisinin]
